Laboratory results reported in PubChem BioAssay AID248 (DTP/NCI, 2004).
Values joined by “and” are separate entries in the source; they are usually repeats but may differ in a detail not shown here. Equal entries are not always repeated. Toxic doses and inconclusive results are not listed. Cut-off read from the data, not from the text of the source: active = T/C of 150% or more; inactive = T/C below 125%.

System: L1210 leukemia ip in BDF1 mice, survival T/C
Experiment: NCI In Vivo Anticancer Drug Screen. Data for tumor model L1210 Leukemia (intraperitoneal) in B6D2F1 (BDF1) mice
Settings: endpoint: mean survival time, higher = longer survival
How it was run: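 Each compound was tested against a transplantable tumor grown in mice. The endpoint was survival, with treated animals benchmarked against vehicle controls as a simple ratio.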

[1] = dose: 50.0 mg/kg/injection, schedule: Q01DX009 (ip), vehicle: Klucel (hydroxypropylcellulose) (HPC)
[2] = dose: 100.0 mg/kg/injection, schedule: Q01DX009 (ip), vehicle: Klucel (hydroxypropylcellulose) (HPC)
[3] = dose: 200.0 mg/kg/injection, schedule: Q01DX009 (ip), vehicle: Klucel (hydroxypropylcellulose) (HPC)
[4] = dose: 400.0 mg/kg/injection, schedule: Q01DX009 (ip), vehicle: Klucel (hydroxypropylcellulose) (HPC)
[5] = dose: 100.0 mg/kg/injection, schedule: Q01DX009 (ip), vehicle: saline
[6] = dose: 200.0 mg/kg/injection, schedule: Q01DX009 (ip), vehicle: saline
[7] = dose: 400.0 mg/kg/injection, schedule: Q01DX009 (ip), vehicle: saline
[8] = dose: 100.0 mg/kg/injection, schedule: Q01DX001 (ip), vehicle: other
[9] = dose: 200.0 mg/kg/injection, schedule: Q01DX001 (ip), vehicle: other
[10] = dose: 100.0 mg/kg/injection, schedule: Q04DX003 (ip), vehicle: saline
[11] = dose: 200.0 mg/kg/injection, schedule: Q04DX003 (ip), vehicle: saline
[12] = dose: 400.0 mg/kg/injection, schedule: Q04DX003 (ip), vehicle: saline
[13] = dose: 100.0 mg/kg/injection, schedule: Q01DX009 (ip), vehicle: saline with Tween-80
[14] = dose: 100.0 mg/kg/injection, schedule: Q04DX003 (ip), vehicle: saline with Tween-80
[15] = dose: 200.0 mg/kg/injection, schedule: Q01DX009 (ip), vehicle: saline with Tween-80
[16] = dose: 200.0 mg/kg/injection, schedule: Q04DX003 (ip), vehicle: saline with Tween-80
[17] = dose: 400.0 mg/kg/injection, schedule: Q01DX009 (ip), vehicle: saline with Tween-80
[18] = dose: 400.0 mg/kg/injection, schedule: Q04DX003 (ip), vehicle: saline with Tween-80
[19] = dose: 100.0 mg/kg/injection, schedule: Q04DX003 (ip), vehicle: Klucel (hydroxypropylcellulose) (HPC)
[20] = dose: 200.0 mg/kg/injection, schedule: Q04DX003 (ip), vehicle: Klucel (hydroxypropylcellulose) (HPC)
[21] = dose: 400.0 mg/kg/injection, schedule: Q04DX003 (ip), vehicle: Klucel (hydroxypropylcellulose) (HPC)
[22] = dose: 25.0 mg/kg/injection, schedule: Q04DX002 (ip), vehicle: Klucel (hydroxypropylcellulose) (HPC)
[23] = dose: 50.0 mg/kg/injection, schedule: Q04DX002 (ip), vehicle: Klucel (hydroxypropylcellulose) (HPC)
[24] = dose: 100.0 mg/kg/injection, schedule: Q04DX002 (ip), vehicle: Klucel (hydroxypropylcellulose) (HPC)

Measured: T/C

CCCCCCCCCCCC(=O)Nc1cc(C)ccc1N=Nc1ccc(C)cc1
inactive: [1] 86 % of control | [2] 95 % of control | [3] 88 % of control | [4] 90 % of control

COC(=N)c1cccc(O)c1
inactive: [5] 99 % of control | [6] 97 % of control | [7] 99 % of control

c1ccc([P+](c2ccccc2)(c2ccccc2)c2ccc(-c3ccc([P+](c4ccccc4)(c4ccccc4)c4ccccc4)cc3)cc2)cc1
inactive: dose: 1.25 mg/kg/injection, schedule: Q01DX009 (ip), vehicle: Klucel (hydroxypropylcellulose) (HPC) 102 % of control | dose: 3.5 mg/kg/injection, schedule: Q01DX009 (ip), vehicle: Klucel (hydroxypropylcellulose) (HPC) 105 % of control

O=[N+]([O-])/C=C/c1ccccc1Br
inactive: dose: 18.75 mg/kg/injection, schedule: Q04DX003 (ip), vehicle: Klucel (hydroxypropylcellulose) (HPC) 96 % of control | dose: 37.5 mg/kg/injection, schedule: Q04DX003 (ip), vehicle: Klucel (hydroxypropylcellulose) (HPC) 102 % of control | dose: 75.0 mg/kg/injection, schedule: Q04DX003 (ip), vehicle: Klucel (hydroxypropylcellulose) (HPC) 104 % of control

CCOC(=O)c1ccccn1
inactive: dose: 100.0 mg/kg/injection, schedule: Q01DX001 (ip), vehicle: saline 98 % of control | dose: 200.0 mg/kg/injection, schedule: Q01DX001 (ip), vehicle: saline 98 % of control

Nc1ccc2ncccc2c1[N+](=O)[O-]
inactive: [8] 87 % of control | [9] 93 % of control

CC1C2C=CC1C(c1c3ccc(=O)c(O)c-3oc3c(O)c(O)ccc13)C2C(=O)O (stereo not drawn)
inactive: [10] 105 % of control | [11] 103 % of control | [12] 100 % of control

Oc1[nH]c2ccccc2c1N=Nc1ccccn1
inactive: [8] 93 % of control | [9] 101 % of control | dose: 400.0 mg/kg/injection, schedule: Q01DX001 (ip), vehicle: other 104 % of control

Clc1ccc(C(=Cc2ccccc2Br)c2ccc(Cl)cc2)cc1
inactive: [13] 100 % of control | [14] 98 % of control | [15] 100 % of control | [16] 98 % of control | [17] 96 % of control | [18] 101 % of control

O=C1OC(c2ccccc2)(c2ccccc2)c2ccc3ccccc3c21
inactive: [13] 98 % of control | [15] 103 % of control | [17] 98 % of control

CCN(CC)P(=O)(N1CC1)N1CC1
124 % of control and 215 % of control: dose: 2.6 mg/kg/injection, schedule: Q01DX Z (ip), vehicle: saline
active: dose: 4.0 mg/kg/injection, schedule: Q01DX Z (ip), vehicle: saline 151 % of control | dose: 9.0 mg/kg/injection, schedule: Q01DX Z (ip), vehicle: saline 213 % of control
inactive: dose: 0.75 mg/kg/injection, schedule: Q01DX Z (ip), vehicle: saline 109 % of control | dose: 1.15 mg/kg/injection, schedule: Q01DX Z (ip), vehicle: saline 121 % of control | dose: 2.0 mg/kg/injection, schedule: Q01DX Z (ip), vehicle: saline 106 % of control | dose: 14.0 mg/kg/injection, schedule: Q01DX Z (ip), vehicle: saline 88 % of control and 91 % of control

O=C1OC2C3c4ccccc4C(c4c3ccc3ccccc43)C2O1 (stereo not drawn)
inactive: [19] 103 % of control | [20] 95 % of control | [21] 95 % of control

CC1C=C(Br)C(=O)c2ccccc2N1S(C)(=O)=O (stereo not drawn)
inactive: dose: 6.0 mg/kg/injection, schedule: Q04DX003 (ip), vehicle: Klucel (hydroxypropylcellulose) (HPC) 98 % of control | dose: 12.0 mg/kg/injection, schedule: Q04DX003 (ip), vehicle: Klucel (hydroxypropylcellulose) (HPC) 92 % of control | dose: 12.5 mg/kg/injection, schedule: Q01DX009 (ip), vehicle: Klucel (hydroxypropylcellulose) (HPC) 102 % of control | dose: 25.0 mg/kg/injection, schedule: Q01DX009 (ip), vehicle: Klucel (hydroxypropylcellulose) (HPC) 94 % of control | dose: 25.0 mg/kg/injection, schedule: Q04DX003 (ip), vehicle: Klucel (hydroxypropylcellulose) (HPC) 93 % of control and 96 % of control

COc1ccc(CCBr)cc1
inactive: [2] 97 % of control | [3] 97 % of control | [4] 95 % of control

COCN1CCN(COC)C1=O
inactive: dose: 100.0 mg/kg/injection, schedule: Q04DX002 (ip), vehicle: saline 105 % of control | dose: 200.0 mg/kg/injection, schedule: Q04DX002 (ip), vehicle: saline 108 % of control | dose: 400.0 mg/kg/injection, schedule: Q04DX002 (ip), vehicle: saline 122 % of control

OC(c1ccccc1)(c1c2ccccc2cc2ccccc12)C1CCC1 (stereo not drawn)
inactive: [2] 101 % of control | [19] 110 % of control | [3] 102 % of control | [20] 91 % of control | [4] 96 % of control | [21] 110 % of control

O=P1(Cc2ccccc2)CCC(O)=C1c1ccccc1 (stereo not drawn)
inactive: [14] 94 % of control | [16] 102 % of control | [18] 91 % of control

OC1CCC(CC2CCCCC2)CC1 (stereo not drawn)
inactive: [16] 92 % of control | [18] 91 % of control

OC/C(I)=C(I)\C(I)=C(\I)CO
inactive: [22] 90 % of control | [23] 90 % of control | [24] 94 % of control and 101 % of control

N#CCc1ccccc1S(=O)(=O)O
inactive: [5] 105 % of control | [10] 98 % of control | [6] 100 % of control | [11] 102 % of control | [7] 103 % of control | [12] 101 % of control

O=C(O)/C=C\C(=O)Nc1ccc(O)cc1
inactive: [19] 102 % of control | dose: 200.0 mg/kg/injection, schedule: Q01DX Z (ip), vehicle: saline 120 % of control | [20] 110 % of control | [21] 110 % of control | dose: 675.0 mg/kg/injection, schedule: Q01DX Z (ip), vehicle: saline 100 % of control

CCCCCCCCCCCCC(O)C(O)CCCCCCCC(=O)O (stereo not drawn)
inactive: [2] 94 % of control | [3] 93 % of control | [4] 93 % of control

CC1(CCl)OCCO1
inactive: [2] 91 % of control | [19] 100 % of control | [3] 96 % of control | [20] 101 % of control | [21] 98 % of control

CCOC(=O)c1cnc(SC)nc1Nc1c(Cl)cccc1Cl
inactive: [14] 96 % of control | [16] 94 % of control | [18] 94 % of control

Cc1cc([N+](=O)[O-])c(N/N=C/c2ccccc2Cl)c([N+](=O)[O-])c1
inactive: [2] 101 % of control | [3] 95 % of control | [4] 95 % of control

O=C(NCCc1ccccc1)C(Cl)Cl
inactive: [1] 93 % of control | [2] 93 % of control | [19] 103 % of control | [3] 94 % of control | [20] 95 % of control | [21] 101 % of control

CCc1ccc(N=Nc2ccc(N)cc2)cc1
inactive: dose: 100.0 mg/kg/injection, schedule: Q01DX001 (ip), vehicle: carboxymethylcellulose (CMC) 101 % of control | dose: 200.0 mg/kg/injection, schedule: Q01DX001 (ip), vehicle: carboxymethylcellulose (CMC) 89 % of control | dose: 400.0 mg/kg/injection, schedule: Q01DX001 (ip), vehicle: carboxymethylcellulose (CMC) 93 % of control

Oc1ccc(C=NCCN=Cc2ccc(O)cc2O)c(O)c1
inactive: dose: 8.0 mg/kg/injection, schedule: Q01DX009 (ip), vehicle: saline with Tween-80 87 % of control | dose: 12.0 mg/kg/injection, schedule: Q01DX009 (ip), vehicle: saline with Tween-80 89 % of control

CS(=O)(=O)N1CC(O)CN(S(C)(=O)=O)CC(O)C1 (stereo not drawn)
inactive: [22] 100 % of control | [23] 100 % of control | [24] 110 % of control

CC1(C)Cc2cccc(OC(=O)NO)c2O1
inactive: dose: 12.5 mg/kg/injection, schedule: Q01DX001 (ip), vehicle: Klucel (hydroxypropylcellulose) (HPC) 100 % of control | dose: 25.0 mg/kg/injection, schedule: Q01DX001 (ip), vehicle: Klucel (hydroxypropylcellulose) (HPC) 96 % of control | dose: 50.0 mg/kg/injection, schedule: Q01DX001 (ip), vehicle: Klucel (hydroxypropylcellulose) (HPC) 96 % of control
